According to US20250109139A1, “TRICYCLIC COMPOUND, AND PREPARATION METHOD THEREFOR AND USE THEREOF” (SHANGHAITECH UNIVERSITY, priority 2022, published 2025):
Like-named read-outs stand apart in the source and are kept apart here.

Legend:
[1] = molecular target: 5-hydroxytryptamine 1A (5-HT1A) receptors (Homo sapiens (Human), UniProt P08908); experiment: 5-HT1A receptor Gαi1 BRET (G protein trimer dissociation); format: cell-based; conditions: relative to endogenous ligand 5-hydroxytryptamine
dopamine D2 receptors [2] = molecular target: T1, dopamine D2 receptors (Homo sapiens (Human), UniProt P14416); experiment: Dopamine D2 receptor radioligand competition binding assay ([3H]-Methylspiperone); conditions: [3H]-Methylspiperone 0.3 to 0.5 nM, 293T membranes
T1 sequence (P14416 whole entry): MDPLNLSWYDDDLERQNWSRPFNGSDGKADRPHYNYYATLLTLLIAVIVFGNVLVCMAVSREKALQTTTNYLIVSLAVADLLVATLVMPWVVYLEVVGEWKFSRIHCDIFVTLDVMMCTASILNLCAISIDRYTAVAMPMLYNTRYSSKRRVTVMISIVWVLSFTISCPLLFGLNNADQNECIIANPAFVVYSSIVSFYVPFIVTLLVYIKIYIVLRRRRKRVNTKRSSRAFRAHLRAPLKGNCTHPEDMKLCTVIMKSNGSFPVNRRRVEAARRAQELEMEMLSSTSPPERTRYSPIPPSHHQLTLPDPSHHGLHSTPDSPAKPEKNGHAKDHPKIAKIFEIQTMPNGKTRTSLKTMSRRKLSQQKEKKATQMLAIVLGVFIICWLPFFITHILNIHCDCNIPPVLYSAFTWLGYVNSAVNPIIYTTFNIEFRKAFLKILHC
Procedure: The affinity of the compounds of the present disclosure for dopamine D2 receptors was determined by a radioligand competition binding assay.
In the first step, a cell membrane component containing specific dopamine D2 receptors was prepared. A 10 cm culture dish was used for transfection with […] of dopamine D2 receptors and 40 μL of polyethylenimine (PEI hereafter). […] A vacuum pump was used to suck off the culture medium, 3 mL of lysis buffer was added to each culture dish, and the cells were placed in a 4° C. cold room for 10 minutes. After the cells were detached, the cells were transferred to a 15 mL centrifuge tube and centrifuged at 1500 rpm for 5 minutes at 4° C., and the supernatant was discarded. The cell pellet was transferred to a tissue homogenizer, and 3 mL of lysis buffer was added and fully ground until the cells were broken. Then, cell suspension was equally aliquoted into several EP tubes, centrifuged at 12000 rpm for 5 minutes at 4° C., and the supernatant was discarded. The precipitate was the cell membrane component containing the dopamine D2 receptors.
First, a standard binding buffer was added to the cell membrane component containing the dopamine D2 receptors, and the cell membrane was disrupted and resuspended with an electric tissue homogenizer. 30 μL of membrane protein suspension was added to each well of a 96-well plate. Then, 30 μL of different drugs were added to the 96-well plate sequentially from bottom to top to ensure that the final drug concentrations were 10^−5 M, 10^−6 M, 10^−7 M, 10^−8 M, 10^−9 M, and 0 M, with two replicates per treatment. Next, 30 μL of [3H]-Methylspiperone was added to each well of the 96-well plate. The plate was incubated at room temperature in the dark for 2 hours. Detection was conducted. The machine readout value reflected the amount of [3H]-Methylspiperone bound on the membrane, and after further data processing, the affinity Ki values of different compounds for the dopamine D2 receptors were obtained.

dopamine D2 receptors [3] = molecular target: T1, dopamine D2 receptors; experiment: Dopamine D2 receptor β-arrestin2 BRET (recruitment); format: cell-based; conditions: for Emax: relative to endogenous ligand dopamine, read-out: β-arrestin2 BRET Emax % ± SEM; for EC50: unit printed only in Cariprazine cell, read-out: β-arrestin2 BRET EC50
Procedure: (§1) To examine the downstream G-protein signaling pathway mediated by dopamine D2 receptors, on the first day, a 6 cm culture dish was used for transfection with 1 μg of dopamine D2 receptors, 1 μg of Gαi1 containing C-terminal seaweed luciferase (Gαi1-Rluc), 1 μg of Gβ3, 1 μg of Gγ9 containing C-terminal green fluorescent protein (Gγ9-GFP) mixed with 16 μL of PEI. At the same time, in order to examine the downstream β-arrestin2 signaling pathway mediated by dopamine D2 receptors, on the first day, a 6 cm culture dish was used for transfection with […] of dopamine D2 receptors containing C-terminal seaweed luciferase (D2-Rluc), […] of G protein-coupled receptor kinase 2 (GRK2), […] of β-arrestin2 containing N-terminal green fluorescent protein (GFP2-ARRB2) mixed with 14 μL of PEI. The next day, the confluent cells of a 6 cm culture dish were digested and reseeded into a 96-well plate with 100 μL of culture medium added to each well. On the third day, the drugs were added for test. The 96-well plate was taken out from the cell incubator to decant the culture medium, 40 μL of the substrate coelenterazine 400a (final concentration of 5 μM) was added to each well, and then 20 μL of different drugs were added sequentially from left to right to ensure that the final concentration of the drug decreased gradually from bottom to top, with two replicates per treatment. Finally, the prepared samples were loaded on machine for test. The machine readout value reflected the recruitment of β-arrestin2 to the membrane or the dissociation of G protein trimer. The former indicated the degree of activation of the β-arrestin2 signaling pathway downstream of the dopamine D2 receptors, and the latter indicated the degree of activation of the G protein signaling pathway downstream of the dopamine D2 receptors.

dopamine D2 receptors [4] = molecular target: T1, dopamine D2 receptors; experiment: Dopamine D2 receptor Gαi1 BRET (G protein trimer dissociation); format: cell-based; conditions: for Emax: relative to endogenous ligand dopamine, read-out: Gαi1 BRET Emax % ± SEM
Procedure: as §1

5-HT2A receptors = 5-HT2A receptors (Homo sapiens (Human), UniProt P28223); experiment: 5-HT2A receptor radioligand competition binding assay ([3H]-ketanserin)
Sequence of 5-HT2A receptors (P28223 whole entry): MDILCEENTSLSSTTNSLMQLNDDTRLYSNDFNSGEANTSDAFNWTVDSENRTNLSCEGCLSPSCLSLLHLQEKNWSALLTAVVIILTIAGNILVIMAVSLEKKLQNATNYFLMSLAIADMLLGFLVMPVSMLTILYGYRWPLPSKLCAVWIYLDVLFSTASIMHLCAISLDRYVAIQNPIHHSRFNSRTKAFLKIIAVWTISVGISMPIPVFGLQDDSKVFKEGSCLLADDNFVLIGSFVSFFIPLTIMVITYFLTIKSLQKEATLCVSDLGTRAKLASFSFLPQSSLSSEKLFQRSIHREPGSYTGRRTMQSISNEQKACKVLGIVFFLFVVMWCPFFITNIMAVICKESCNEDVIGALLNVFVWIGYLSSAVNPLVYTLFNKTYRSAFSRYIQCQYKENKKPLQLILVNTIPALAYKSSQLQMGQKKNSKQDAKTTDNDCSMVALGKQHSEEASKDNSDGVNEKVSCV
Procedure: The affinity of the compounds of the present disclosure for 5-HT2A receptors was determined by a radioligand competition binding assay. In the first step, a cell membrane component containing specific 5-HT2A receptor was prepared. A 10 cm dish was used for transfection with […] of 5-HT2A receptors and 40 μL of PEI. After 48 hours, the 10 cm dish was taken out from the cell incubator and the cultured cells had expressed the 5-HT2A receptors. A vacuum pump was used to suck off the culture medium, 3 mL of lysis buffer was added to each culture dish, and the cells were placed in a 4° C. cold room for 10 minutes. After the cells were detached, the cells were transferred to a 15 mL centrifuge tube and centrifuged at 1500 rpm for 5 minutes at 4° C., and the supernatant was discarded. The cell pellet was transferred to a tissue homogenizer, and 3 mL of lysis buffer was added and fully ground until the cells were broken. Then, cell suspension was equally aliquoted into several EP tubes, centrifuged at 12000 rpm for 5 minutes at 4° C., and the supernatant was discarded. The precipitate was the cell membrane component containing the 5-HT2A receptors. […] First, a standard binding buffer was added to the cell membrane component containing the 5-HT2A receptors, and the cell membrane was disrupted and resuspended with an electric tissue homogenizer. 30 μL of membrane protein suspension was added to each well of a 96-well plate. Then, 30 μL of different drugs were added to the 96-well plate sequentially from bottom to top to ensure that the final drug concentrations were 10^−5 M, 10^−6 M, 10^−7 M, 10^−8 M, 10^−9 M, and 0 M, with two replicates per treatment. Next, 30 μL of [^3H]-ketanserin was added to each well of the 96-well plate. The plate was incubated at room temperature in the dark for 2 hours. Detection was conducted. The machine readout value reflected the amount of [^3H]-ketanserin bound on the membrane, and after further data processing, the affinity Ki values of different compounds for the 5-HT2A receptors were obtained.

[5] = read-out: Gαi1 BRET pEC50 ± SEM (converted)
[6] = unit printed only in Cariprazine cell, read-out: Gαi1 BRET EC50
[7] = [3H]-ketanserin, 293T membranes, read-out: Ki

Sequence of 5-hydroxytryptamine 1A (5-HT1A) receptors (P08908 whole entry): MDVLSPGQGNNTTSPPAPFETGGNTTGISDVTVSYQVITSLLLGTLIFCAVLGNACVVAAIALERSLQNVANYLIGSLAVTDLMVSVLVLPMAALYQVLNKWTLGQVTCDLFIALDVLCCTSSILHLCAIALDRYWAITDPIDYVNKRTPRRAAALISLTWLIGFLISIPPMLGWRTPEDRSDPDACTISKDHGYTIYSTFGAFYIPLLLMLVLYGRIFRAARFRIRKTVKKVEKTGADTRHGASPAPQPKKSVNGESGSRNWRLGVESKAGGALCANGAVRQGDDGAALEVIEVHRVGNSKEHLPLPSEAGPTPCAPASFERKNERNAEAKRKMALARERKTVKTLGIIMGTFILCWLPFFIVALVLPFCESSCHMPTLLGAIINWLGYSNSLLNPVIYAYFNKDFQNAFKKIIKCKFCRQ

SMILES	Emax [1]	Emax (dopamine D2 receptors [3])	EC50 (dopamine D2 receptors [3])	Ki (dopamine D2 receptors [2]; read-out: Affinity Ki)	Affinity pKi ± SEM (dopamine D2 receptors [2])	also measured
CC(C)Oc1cccc2c3c(oc12)CN(CCCCOc1ccc2ccc(=O)[nH]c2c1)CC3 [I-A18, 7-(4-(8-isopropoxy-3,4-dihydrobenzofuro[2,3-c]pyridin-2(1H)-yl)butoxy)quinolin-2(1H)-one]	81.9%				(7.05 ± 0.09)	
CCOc1cccc2c3c([nH]c12)CN(CCC1CC(NC(=O)N(C)C)C1)CC3 (centres unmarked) [I-B11, 3-(3-(2-(8-ethoxy-1,3,4,9-tetrahydro-2H-pyrido[3,4-b]indol-2-yl)ethyl)cyclobutyl)-1,1-dimethylurea]	22.3%					
CCOc1cccc2c3c(oc12)CN(CCCCOc1ccc2c(c1)NC(=O)CO2)CC3 [I-A30, 6-(4-(8-ethoxy-3,4-dihydrobenzofuro[2,3-c]pyridin-2(1H)-yl)butoxy)-2H-benzo[b][1,4]oxazin-3(4H)-one]	74.5%	52%	23.7 nM	151 nM		
CCOc1cccc2c3c(oc12)CN(CCN1CCc2cc(C)ncc2C1=O)CC3 [I-A38, 2-(2-(8-ethoxy-3,4-dihydrobenzofuro[2,3-c]pyridin-2(1H)-yl)ethyl)-6-methyl-3,4-trihydro-2,7-naphthyridin-1(2H)-one]						Gαi1 BRET Emax % [1]: 116.2%
COc1cccc2c3c(oc12)CN(CC1(O)CCCCC1)CC3 [I-A21, 1-((8-methoxy-3,4-dihydrobenzofuro[2,3-c]pyridin-2(1H)-yl)methyl)cyclohexan-1-ol]		59%	23.6 nM	524 nM	(6.28 ± 0.28)	EC50 (dopamine D2 receptors [4]; [5]): 2.95 nM; Emax (dopamine D2 receptors [4]): 68%; EC50 (dopamine D2 receptors [4]; [6]): 4.61 nM; affinity for 5-HT2A receptors (in words) (5-HT2A receptors): very weak affinity; Ki (5-HT2A receptors; [7]): > 10000 nM
CCOc1cccc2c3c([nH]c12)CN(CC[C@H]1CC[C@H](NC(=O)N(C)C)CC1)CC3 [I-B8, 3-(trans-4-(2-(8-ethoxy-1,3,4,9-tetrahydro-2H-pyrido[3,4-b]indol-2-yl)ethyl)cyclohexyl)-1,1-dimethylurea]	37.9%			381 nM	(6.41 ± 0.16)	
CCOc1cccc2c3c(oc12)CN(CCCCOc1ccc2ccc(=O)[nH]c2c1)CC3 [I-A16, 7-(4-(8-ethoxy-3,4-dihydrobenzofuro[2,3-c]pyridin-2(1H)-yl)butoxy)quinolin-2(1H)-one]	85.9%		11.3 nM	16.5 nM	(7.78 ± 0.41)	β-arrestin2 BRET pEC50 ± SEM (dopamine D2 receptors [3]): (7.94 ± 0.11); Ki (5-HT2A receptors): 1320 nM; affinity for 5-HT2A receptors (in words) (5-HT2A receptors): very weak affinity

The next lines start with results.

Emax [1]	Emax (dopamine D2 receptors [3])	EC50 (dopamine D2 receptors [3])	Ki (dopamine D2 receptors [2]; read-out: Affinity Ki)	SMILES	Affinity pKi ± SEM (dopamine D2 receptors [2])	also measured
98.5%	31%	213 nM		CCOc1cccc2c3c(oc12)CN(CCCCN1C(=O)CC2(CCCC2)CC1=O)CC3 [I-A46, 8-(4-(8-ethoxy-3,4-dihydrobenzofuro[2,3-c]pyridin-2(1H)-yl)butyl)-8-azaspiro[4.5]decane-7,9-dione]		
104%				CCOc1cccc2c3c(oc12)CN(CCCOc1ccc2c(c1)OCO2)CC3 [I-A31, 2-(3-(benzo[d][1,3]dioxol-5-yloxy)propyl)-8-ethoxy-1,2,3,4-tetrahydrobenzofuro[2,3-c]pyridine]		
78%	78%	54.6 nM		CCOc1cccc2c3c(oc12)CN(CCCCc1ccc2ccc(=O)[nH]c2c1)CC3 [I-A25]		EC50 (dopamine D2 receptors [4]; [5]): 2.04 nM; Emax (dopamine D2 receptors [4]): 40%; EC50 (dopamine D2 receptors [4]; [6]): 1.32 nM
75.9%	21%	206 nM		CCOc1cccc2c3c(oc12)CN(CCCn1ncc(=O)n(C)c1=O)CC3 [I-A44, 2-(3-(8-ethoxy-3,4-dihydrobenzofuro[2,3-c]pyridin-2(1H)-yl)propyl)-4-methyl-1,2,4-triazine-3,5(2H,4H)-dione]		
	82%	238 nM	103 nM	CCOc1cccc2c3c(oc12)CN(CC1(O)CCCCC1)CC3 [I-A28, 1-((8-ethoxy-3,4-dihydrobenzofuro[2,3-c]pyridin-2(1H)-yl)methyl)cyclohexan-1-ol]	(6.99 ± 0.21)	EC50 (dopamine D2 receptors [4]; [5]): 44.7 nM; Emax (dopamine D2 receptors [4]): 27%; EC50 (dopamine D2 receptors [4]; [6]): 32.5 nM; affinity for 5-HT2A receptors (in words) (5-HT2A receptors): very weak affinity; Ki (5-HT2A receptors; [7]): > 10000 nM
74.3%	30%	25.4 nM	714 nM	CCOc1cccc2c3c(oc12)CN(CCCCN1C(=O)CC(C)(C)CC1=O)CC3 [I-A45, 1-(4-(8-ethoxy-3,4-dihydrobenzofuro[2,3-c]pyridin-2(1H)-yl)butyl)-4,4-dimethylpiperidine-2,6-dione]	(6.14 ± 0.15)	
38.4%	33%	2.81 nM	605 nM	CCOc1cccc2c3c(oc12)CN(CCC1CC(NC(=O)N(C)C)C1)CC3 (centres unmarked) [I-A34, 3-(3-(2-(8-ethoxy-3,4-dihydrobenzofuro[2,3-c]pyridin-2(1H)-yl)ethyl)cyclobutyl)-1,1-dimethylurea]		Ki (dopamine D2 receptors [2]; read-out: Affinity pKi ± SEM (converted)): 617 nM
